# Experiment: Solubility relative to 100 g of water at 20° C.
# Assay type: physicochemical
# Settings: per 100 g of water
row,SMILES,solubility relative to 100 g of water [g]
1,"NNC(=O)CCCCCCCCCCCCCCCCCCC(=O)NN [1,18-octadecane dicarbohydrazide]",≤ 0.1
2,"NNC(=O)c1ccc(C(=O)NN)cc1 [Dihydrazide compound-1, terephthalic acid dihydrazide]",≤ 0.01
3,"NNC(=O)CCCCCCCCCCC(=O)NN [Dihydrazide compound-2, 1,10-dodecane diacid dihydrazide]",≤ 0.01
4,"NNC(=O)CCCCC(=O)NN [Dihydrazide compound-3, adipic acid dihydrazide, reference compound]",9.1
5,NNC(=O)C(=O)NN [oxalic acid dihydrazide],≤ 0.2

# Experiment: Vapor pressure at 20° C.
# Assay type: physicochemical
# Settings: not given
row,SMILES,vapor pressure
1,"CC(C)(c1ccccc1)c1cc(-n2nc3ccccc3n2)c(O)c(C(C)(C)c2ccccc2)c1 [Tinuvin 234, 2-(2H-benzotriazol-2-yl)-4,6-bis(1-methyl-1-phenylethyl)phenol]",2.0×10^−10 Pa

# — patent publication US8846788B2, “Polyacetal resin composition, resin molded article, and method and agent for improving polyacetal resin raw material composition” (Mitsubishi Engineering-Plastics Corporation, priority 2008, dated 2014)
